According to paper PMC6857076 (Pharmacology Research & Perspectives, 2019):
Like-named read-outs stand apart in the source and are kept apart here.

Tests used:
CRP = details: RA, cited from earlier work
[1] = unbound, Cav × fu
NK cell counts = details: RA, baricitinib 4 mg QD, cited from earlier work
[2] = target: recombinant human kinase domain of TYK2 (Homo sapiens, UniProt P29597); experiment: Enzymatic microfluidic kinase assay, TYK2
[3] = human; baricitinib 4 mg QD; cited from earlier work
in vitro = details: both, human, pooled human plasma
platelet counts = details: integrated analysis of phase 1b, 2, 3 and LTE RA studies, baricitinib 4 mg QD; cited from earlier work
[4] = pooled RA clinical studies, cited from earlier work
[5] = integrated analysis of phase 1b, 2, 3 and LTE RA studies, baricitinib 4 mg QD; cited from earlier work

Sequence of recombinant human kinase domain of TYK2 (P29597 897-1176 limits assumed): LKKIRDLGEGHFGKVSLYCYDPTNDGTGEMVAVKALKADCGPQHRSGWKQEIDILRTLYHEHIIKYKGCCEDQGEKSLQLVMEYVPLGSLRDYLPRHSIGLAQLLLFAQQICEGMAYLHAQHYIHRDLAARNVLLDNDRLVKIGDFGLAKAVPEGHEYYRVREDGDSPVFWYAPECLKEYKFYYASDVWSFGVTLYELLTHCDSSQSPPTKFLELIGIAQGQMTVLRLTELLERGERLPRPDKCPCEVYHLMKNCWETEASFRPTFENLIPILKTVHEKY

Cav,u ([1]; tofacitinib 5 mg BID) [nM]	Compound	reduction of CRP levels from baseline to week 12 (CRP; tofacitinib 5 mg BID) [mg/L]	change from baseline in NK cell counts (NK cell counts; week 12) [cells/mm^3]	change from baseline in NK cell counts (NK cell counts; week 24) [cells/mm^3]	IC50 [2] [nM]	reduction of CRP levels from baseline to week 12 (CRP; baricitinib 4 mg QD)	Cav [3] [nM]	fraction unbound at 6 h, 1 μmol/L (in vitro)	platelet counts vs baseline (platelet counts)	herpes zoster incidence rate ([4]; baricitinib 2 mg QD)	herpes zoster incidence rate ([4]; baricitinib 4 mg QD)	Cav,u ([1]; baricitinib 4 mg QD) [nM]	hemoglobin levels vs baseline [5]
41.0	C[C@@H]1CCN(C(=O)CC#N)C[C@@H]1N(C)c1ncnc2[nH]ccc12 [Tofacitinib]	-10.1	–	–	–	–	–	–	–	–	–	–	–
–	CCS(=O)(=O)N1CC(CC#N)(n2cc(-c3ncnc4[nH]ccc34)cn2)C1 [Baricitinib]	–	−57.0	−53.4	14	approximately −10 mg/L	27	0.59	initial increase in platelet counts, which then returned toward baseline	2.7 events per 100 patient-years	4.3 events per 100 patient-years	16.0	decreased from baseline to week 20, then returned to baseline or higher
